{
  "source": "ChEMBL document CHEMBL1201862",
  "about": "“PubChem BioAssay data set” (2004)",
  "key": {"[1]": {"target": "E3 ubiquitin-protein ligase Mdm2 (Homo sapiens, UniProt Q00987)", "sequence (Q00987 whole entry)": "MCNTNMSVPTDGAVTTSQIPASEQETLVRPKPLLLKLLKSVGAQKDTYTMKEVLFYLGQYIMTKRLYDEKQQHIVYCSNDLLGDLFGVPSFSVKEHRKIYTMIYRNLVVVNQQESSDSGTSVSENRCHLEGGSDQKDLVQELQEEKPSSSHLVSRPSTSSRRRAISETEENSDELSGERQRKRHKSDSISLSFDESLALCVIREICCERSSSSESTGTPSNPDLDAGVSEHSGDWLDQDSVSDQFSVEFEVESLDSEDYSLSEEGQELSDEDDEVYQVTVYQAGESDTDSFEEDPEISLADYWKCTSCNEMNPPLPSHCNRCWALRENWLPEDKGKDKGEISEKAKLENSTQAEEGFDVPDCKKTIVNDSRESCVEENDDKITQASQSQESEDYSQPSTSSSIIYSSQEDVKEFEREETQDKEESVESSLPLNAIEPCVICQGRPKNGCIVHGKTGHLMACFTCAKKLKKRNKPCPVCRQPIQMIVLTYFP", "test": "MDM2-luc reporter signal enhancers, multi-concentration potency testing, MDM2 ubiquitin-protein ligase inhibitor program, whole-cell format, luminescence detection, 384-well microplate (AID 1394);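 also: MDM2 E3 inhibitors raise luminescence so EC50 is for signal enhancement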", "format": "functional"}, "[2]": {"target": "T1, Replicative DNA helicase DnaB (Mycobacterium tuberculosis, UniProt P9WMR3)", "T1 sequence (P9WMR3 whole entry)": "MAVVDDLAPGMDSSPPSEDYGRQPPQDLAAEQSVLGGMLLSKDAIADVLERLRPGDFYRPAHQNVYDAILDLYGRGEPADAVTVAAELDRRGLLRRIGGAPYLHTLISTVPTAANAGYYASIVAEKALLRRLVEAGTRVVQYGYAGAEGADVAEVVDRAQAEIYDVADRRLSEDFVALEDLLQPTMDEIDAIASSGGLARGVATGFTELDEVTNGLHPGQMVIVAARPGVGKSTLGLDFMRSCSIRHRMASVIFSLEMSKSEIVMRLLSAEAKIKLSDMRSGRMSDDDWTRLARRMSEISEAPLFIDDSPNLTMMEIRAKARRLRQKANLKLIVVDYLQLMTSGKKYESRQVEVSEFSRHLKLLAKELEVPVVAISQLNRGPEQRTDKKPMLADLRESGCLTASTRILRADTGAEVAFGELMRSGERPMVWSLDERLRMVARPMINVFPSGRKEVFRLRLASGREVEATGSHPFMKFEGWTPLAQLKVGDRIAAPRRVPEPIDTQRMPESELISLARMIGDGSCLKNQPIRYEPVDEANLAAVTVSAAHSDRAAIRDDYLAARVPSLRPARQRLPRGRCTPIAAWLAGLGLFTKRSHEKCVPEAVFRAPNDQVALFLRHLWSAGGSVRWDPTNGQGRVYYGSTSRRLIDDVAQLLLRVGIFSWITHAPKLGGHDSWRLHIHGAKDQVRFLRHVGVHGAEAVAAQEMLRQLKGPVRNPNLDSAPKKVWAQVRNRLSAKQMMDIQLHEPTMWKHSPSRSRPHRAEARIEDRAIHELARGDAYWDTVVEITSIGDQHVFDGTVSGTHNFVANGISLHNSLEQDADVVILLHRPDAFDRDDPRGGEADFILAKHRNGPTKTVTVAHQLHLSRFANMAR", "test": "DnaB intein splicing inhibitors, dose response, biochemical, cell-free fluorescence (AID 449749)", "format": "functional"}, "Transthyretin": {"target": "Transthyretin (Homo sapiens, UniProt P02766)", "test": "Luminescence-based cell-based high throughput dose response assay to identify activators of Transthyretin (TTR) transcription.", "format": "functional"}, "Protein RecA": {"target": "T2, Protein RecA (Mycobacterium tuberculosis, UniProt P9WHJ3)", "T2 sequence (P9WHJ3 whole entry)": "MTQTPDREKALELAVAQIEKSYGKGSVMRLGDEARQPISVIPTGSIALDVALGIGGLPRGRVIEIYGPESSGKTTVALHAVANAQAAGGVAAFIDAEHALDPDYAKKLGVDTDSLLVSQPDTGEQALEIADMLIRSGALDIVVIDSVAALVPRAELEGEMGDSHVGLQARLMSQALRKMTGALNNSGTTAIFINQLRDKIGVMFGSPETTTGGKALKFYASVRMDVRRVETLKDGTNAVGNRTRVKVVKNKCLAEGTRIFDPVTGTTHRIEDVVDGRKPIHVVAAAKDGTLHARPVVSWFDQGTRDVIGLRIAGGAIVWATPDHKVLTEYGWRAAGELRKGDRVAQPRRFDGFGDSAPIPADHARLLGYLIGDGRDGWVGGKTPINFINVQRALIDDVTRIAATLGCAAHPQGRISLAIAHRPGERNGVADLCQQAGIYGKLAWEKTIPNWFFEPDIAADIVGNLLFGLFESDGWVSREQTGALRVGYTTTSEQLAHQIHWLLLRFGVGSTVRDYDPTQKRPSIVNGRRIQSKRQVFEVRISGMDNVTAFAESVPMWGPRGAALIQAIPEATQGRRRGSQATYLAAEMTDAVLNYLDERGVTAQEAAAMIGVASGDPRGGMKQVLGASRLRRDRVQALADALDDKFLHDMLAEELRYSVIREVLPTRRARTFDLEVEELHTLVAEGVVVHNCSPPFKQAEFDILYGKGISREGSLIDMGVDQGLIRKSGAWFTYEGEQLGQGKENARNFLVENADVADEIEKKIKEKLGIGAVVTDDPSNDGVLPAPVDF", "test": "Fluorescence Cell-Free Homogeneous Dose Retest to Identify Inhibitors of RecA-Intein Splicing Activity. [Related pubchem assays (depositor defined):AID2097, AID2223, AID489010, AID492950]", "format": "functional"}, "[3]": {"test": "viability loss in human Jurkat cells – cell-based, luminescence, cytotoxicity control for P. falciparum gametocyte viability project, dose response (AID 1117277);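 also: potency reflects loss of cellular ATP meaning fewer viable cells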", "format": "functional"}, "[4]": {"test": "viability inhibitors of stage V gametocytes – luminescence, dose response (AID 1117278);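 also: gametocytes exposed to compound for 24 hours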", "format": "functional, cell-based"}, "[5]": {"test": "HEK-293T viability loss after treatment – luminescence, T-cell screen hits, cytotoxicity control for TCR NF-kB inhibitor project, dose response (AID 489026);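 also: cells exposed to compound about 14 hours before the viability readout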", "format": "functional, cell-based"}, "Vero": {"system": "Vero", "test": "mammalian cell viability reduction – secondary assay, cytotoxicity control for West Nile virus antiviral project, dose response (AID 1650)", "format": "functional", "conditions": "Chlorocebus sabaeus"}, "[6]": {"test": "non-specific 3'UTR reporter inhibition in Clone20-Shn3RL – cell-based, Renilla luciferase, cherry-picked, counter-screen for Shn3 inhibitor project, dose response (AID 624133)", "format": "functional"}, "[7]": {"test": "reduction of Shn3 3'UTR-driven luciferase in osteoblasts – cell-based, Clone20 osteoblasts, firefly luciferase, cherry-picked, dose response (AID 624132)", "format": "functional"}, "HEK293": {"system": "HEK293", "test": "EBV LMP1 TES2 canonical NF-kB signalling blockers – cell-based, HEK293, luciferase, cherry-pick, dose response (AID 588343)", "format": "functional", "conditions": "Homo sapiens"}, "[8]": {"target": "Voltage-gated inwardly rectifying potassium channel KCNH2 (Homo sapiens, UniProt Q12809)", "sequence (Q12809 whole entry)": "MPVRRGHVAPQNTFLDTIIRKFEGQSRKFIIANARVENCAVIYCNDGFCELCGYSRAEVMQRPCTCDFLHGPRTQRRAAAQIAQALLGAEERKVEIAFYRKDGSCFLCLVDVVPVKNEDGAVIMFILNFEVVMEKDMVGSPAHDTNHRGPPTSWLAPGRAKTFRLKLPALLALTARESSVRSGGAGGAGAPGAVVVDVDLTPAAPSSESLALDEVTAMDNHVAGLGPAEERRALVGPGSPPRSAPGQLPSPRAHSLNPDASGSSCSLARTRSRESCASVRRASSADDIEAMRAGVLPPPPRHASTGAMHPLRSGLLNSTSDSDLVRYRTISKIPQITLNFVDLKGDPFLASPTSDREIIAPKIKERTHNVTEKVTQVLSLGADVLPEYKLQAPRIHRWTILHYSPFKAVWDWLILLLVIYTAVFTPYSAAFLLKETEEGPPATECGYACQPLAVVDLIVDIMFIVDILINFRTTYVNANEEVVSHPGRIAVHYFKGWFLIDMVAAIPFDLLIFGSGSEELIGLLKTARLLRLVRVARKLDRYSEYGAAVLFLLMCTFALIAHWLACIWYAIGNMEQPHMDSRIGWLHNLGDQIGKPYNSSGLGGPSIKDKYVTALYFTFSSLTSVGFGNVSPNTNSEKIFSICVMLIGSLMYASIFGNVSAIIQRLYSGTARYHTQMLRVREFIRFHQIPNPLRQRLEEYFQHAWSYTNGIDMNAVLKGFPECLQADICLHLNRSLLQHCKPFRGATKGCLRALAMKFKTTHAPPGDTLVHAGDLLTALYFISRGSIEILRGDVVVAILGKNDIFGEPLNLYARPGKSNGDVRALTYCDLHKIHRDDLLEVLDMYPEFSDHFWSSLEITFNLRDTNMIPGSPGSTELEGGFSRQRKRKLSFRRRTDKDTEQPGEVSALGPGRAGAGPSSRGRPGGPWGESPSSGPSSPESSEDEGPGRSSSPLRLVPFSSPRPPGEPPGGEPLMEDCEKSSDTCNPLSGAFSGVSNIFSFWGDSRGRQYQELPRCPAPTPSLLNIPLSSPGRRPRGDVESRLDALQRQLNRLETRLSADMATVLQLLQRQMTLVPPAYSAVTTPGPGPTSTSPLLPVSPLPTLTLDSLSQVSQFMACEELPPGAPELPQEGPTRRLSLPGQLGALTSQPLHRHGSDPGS", "test": "concentration-dependent hERG rescue from blockers – cell-based, thallium flux, dose response (AID 2121)", "format": "ADME"}},
  "note": "The source made the active and inactive calls.",
  "data": [
    {"smiles": "CC(=O)Nc1ccc(S(=O)(=O)N2CCN=C2SCc2cccnc2)cc1", "values": [
      {"measurement": "EC50", "setting": "[1]", "value": "9.39 µM (not active)"}
    ]},
    {"smiles": "COc1ccc2[nH]c3c(Cl)ncnc3c2c1", "values": [
      {"measurement": "AC50", "setting": "[2]", "value": "> 380 µM (inactive)"},
      {"measurement": "EC50", "setting": "Transthyretin", "value": "> 167 µM (inactive)"},
      {"measurement": "EC50", "setting": "Protein RecA", "value": "> 380 µM (inactive)"}
    ]},
    {"smiles": "NC(=O)C1CCN(C(=O)CN2CCc3ccccc32)CC1", "values": [
      {"measurement": "IC50", "setting": "[3]", "value": "> 83.3 µM (inactive)"},
      {"measurement": "IC50", "setting": "[4]", "value": "> 109 µM (inactive)"}
    ]},
    {"smiles": "CS(=O)(=O)c1ccc(Sc2nc3ccccc3s2)c([N+](=O)[O-])c1", "values": [
      {"measurement": "IC50", "setting": "[5]", "value": "79.5 µM (inactive)"},
      {"measurement": "CC50", "setting": "Vero", "value": "18.3 µM (active)"},
      {"measurement": "AC50", "setting": "[6]", "value": "31.2 µM (active)"},
      {"measurement": "AC50", "setting": "[7]", "value": "9.73 µM (active)"},
      {"measurement": "AC50", "setting": "HEK293", "value": "4.87 µM (active)"}
    ]},
    {"smiles": "COc1ccc(C(=O)NNC(=O)C(=O)Nc2ccc(C)c(Cl)c2)cc1", "values": [
      {"measurement": "EC50", "setting": "[8]", "value": "0.06 µM (active)"}
    ]}
  ]
}
